The assay in a line: Antimicrobial activity assay: whole-cell MIC by broth microdilution (NCCLS M7-A6). Format: cell-based. The protocol: Whole-cell antimicrobial activity was determined by broth microdilution using the National Committee for Clinical Laboratory Standards (NCCLS) recommended procedure, Document M7-A6, “Methods for Dilution Susceptibility Tests for Bacteria that Grow Aerobically”. The compounds were tested in serial two-fold dilutions ranging from 0.016 to 16 mcg/mL. Compounds were evaluated against a panel of Gram-positive organisms, including Staphylococcus aureus WCUH29, Streptococcus pneumoniae 1629, Streptococcus pyogenes CN 10, and Enterococcus faecalis 2. In addition, compounds were evaluated against a panel of Gram-negative strains including Haemophilus influenzae NEMC1, E. coli 7623, and Moraxella catarrhalis Ravasio. The minimum inhibitory concentration (MIC) was determined as the lowest concentration of compound that inhibited visible growth. A mirror reader was used to assist in determining the MIC endpoint.
Compounds of the present invention have MIC's ≦20 μg/ml versus all the organisms named above.
(Dilution methods test growth across graded concentrations, often in twofold steps.)

Where [1] appears, read: versus all the organisms named above (S. aureus WCUH29, S. pneumoniae 1629, S. pyogenes CN 10, E. faecalis 2, H. influenzae NEMC1, E. coli 7623, M. catarrhalis Ravasio), read-out: MIC.

SMILES strings stand for the structures. Counter-ions that a name gives are not always drawn. Like-named read-outs stand apart in the source and are kept apart here.

Consider `COc1ccc2ncc(Cl)c(CCN3CC[C@H](NCc4cc5c(cn4)OCCO5)[C@H](O)C3)c2c1.Cl.Cl` (single isomer, unassigned; enantiomer 1) [Example 45, cis-1-[2-(3-Chloro-6-methoxy-quinolin-4-yl)-ethyl]-4-[(2,3-dihydro-[1,4]dioxino[2,3-c]pyridin-7-ylmethyl)-amino]-piperidin-3-ol Dihydrochloride Enantiomer 1], for which the MIC under setting [1] is ≤ 2 µg/mL.
With `COc1ccc2ncc(F)c(CCN3CC[C@H](NCc4cnc5c(c4)NC(=O)CS5)[C@H](O)C3)c2c1.Cl.Cl` (single isomer, unassigned; enantiomer 1) [Example 96], the MIC under setting [1] is ≤ 2 µg/mL.
In the case of `COc1ccc2ncc(Cl)c(CCN3CC[C@H](NCc4ccc5c(n4)NC(=O)CS5)[C@H](O)C3)c2c1` (single isomer, unassigned; enantiomer 2) [Example 8, 6-({(cis)-1-[2-(3-Chloro-6-methoxy-quinolin-4-yl)-ethyl]-3-hydroxy-piperidin-4-ylamino}-methyl)-4H-pyrido[3,2-b][1,4]thiazin-3-one Dihydrochloride Enantiomer 2], the MIC under setting [1] is ≤ 2 µg/mL.
On the same count and under the same terms, under `COc1cc(F)c2ncc(F)c(CCN3CC[C@H](NCc4cnc5c(c4)NC(=O)CS5)[C@H](O)C3)c2c1.Cl.Cl` (single isomer, unassigned; enantiomer 1) [Example 72] stands ≤ 2 µg/mL.
Same read-out and setting: under `COc1cc(F)c2ncc(F)c(CCN3CC[C@H](NCc4ccc5c(n4)NC(=O)CO5)[C@H](O)C3)c2c1.Cl.Cl` [Example 75, 6-{[((3R,4S)-1-{2-[3,8-difluoro-6-(methoxy)-4-quinolinyl]ethyl}-3-hydroxy-4-piperidinyl)amino]methyl}-2H-pyrido[3,2-b][1,4]oxazin-3(4H)-one dihydrochloride] stands ≤ 2 µg/mL.
In the case of `COc1ccc2ncc(Cl)c(CCN3CC[C@H](NCc4ccc5c(n4)NC(=O)CS5)[C@H](O)C3)c2c1.Cl.Cl` (single isomer, unassigned; enantiomer 1) [Example 7, 6-({(cis)-1-[2-(3-Chloro-6-methoxy-quinolin-4-yl)-ethyl]-3-hydroxy-piperidin-4-ylamino}-methyl)-4H-pyrido[3,2-b][1,4]thiazin-3-one Dihydrochloride Enantiomer 1], the MIC under setting [1] is ≤ 2 µg/mL.
The same measure, in the same setting: the same measure for `COc1ccc2ncc(Cl)c(CCN3CCC(NCc4ccc5c(n4)NC(=O)CS5)CC3)c2c1.Cl.Cl.Cl` [Example 13, 6-({1-[2-(3-Chloro-6-methoxyquinolin-4-yl)ethyl]piperidin-4-ylamino}methyl)-4H-pyrido[3,2-b][1,4]thiazin-3-one Trihydrochloride]: ≤ 2 µg/mL; for `COc1ccc2ncc(F)c(CCN3CCC(NCc4cc5c(cn4)OCCO5)CC3)c2c1.Cl.Cl` [Example 32, {1-[2-(3-Fluoro-6-methoxy-quinolin-4-yl)-ethyl]-piperidin-4-yl}-(2,3-dihydro-[1,4]dioxino[2,3-c]pyridin-7-ylmethyl)-amine dihydrochloride]: ≤ 2 µg/mL.
With `COc1ccc2ncc(F)c(CCN3CCC(NCc4ccc5nsnc5c4)CC3)c2c1.Cl.Cl` [Example 79, N-(2,1,3-benzothiadiazol-5-ylmethyl)-1-{2-[3-fluoro-6-(methoxy)-4-quinolinyl]ethyl}-4-piperidinamine dihydrochloride], the MIC was ≤ 2 µg/mL.
Regarding `COc1ccc2ncc(F)c(CCN3CCC(C)(NCc4ccc5c(n4)NC(=O)CS5)CC3)c2n1.Cl.Cl` [Example 139, 6-{[(1-{2-[3-fluoro-6-(methoxy)-1,5-naphthyridin-4-yl]ethyl}-4-methyl-4-piperidinyl)amino]methyl}-2H-pyrido[3,2-b][1,4]thiazin-3(4H)-one dihydrochloride], the MIC under setting [1] was ≤ 2 µg/mL.
On the same count and under the same terms, under `COc1ccc2ncc(F)c(CCN3CCC(C)(NC(=O)c4ccc5c(n4)NC(=O)CS5)CC3)c2n1` [Example 168, N-(1-{2-[3-fluoro-6-(methoxy)-1,5-naphthyridin-4-yl]ethyl}-4-methyl-4-piperidinyl)-3-oxo-3,4-dihydro-2H-pyrido[3,2-b][1,4]thiazine-6-carboxamide] stands ≤ 2 µg/mL; under `COc1ccc2ncc(F)c(CCN3CCC(NCc4ccc5c(c4)NC(=O)CCS5)CC3)c2n1` [Example 128, 7-{[(1-{2-[3-fluoro-6-(methoxy)-1,5-naphthyridin-4-yl]ethyl}-4-piperidinyl)amino]methyl}-2,3-dihydro-1,5-benzothiazepin-4(5H)-one], ≤ 2 µg/mL; under `COc1ccc2ncc(F)c(CCN3CCC(NCc4cc5c(nn4)SCC(=O)N5)CC3)c2n1.Cl.Cl` [Example 58, 3-{[(1-{2-[3-fluoro-6-(methoxy)-1,5-naphthyridin-4-yl]ethyl}-4-piperidinyl)amino]methyl}-5H-pyridazino[3,4-b][1,4]thiazin-6(7H)-one dihydrochloride], ≤ 2 µg/mL.
For the compound `COc1ccc2ncc(F)c(CCN3CCC(NCC4=CC=C5CCCN=C5N4)CC3)c2c1.Cl.Cl` [Example 77, 1-{2-[3-fluoro-6-(methoxy)-4-quinolinyl]ethyl}-N-(1,5,6,7-tetrahydro-1,8-naphthyridin-2-ylmethyl)-4-piperidinamine dihydrochloride], under setting [1], the MIC is ≤ 2 µg/mL.
Still for that read-out and setting: the same measure for `COc1ccc2ncc(Cl)c(CCN3CC[C@H](NCc4ccc5c(n4)NC(=O)CO5)[C@H](O)C3)c2c1` (single isomer, unassigned; enantiomer 2) [Example 6, 6-({(cis)-1-[2-(3-Chloro-6-methoxy-quinolin-4-yl)-ethyl]-3-hydroxy-piperidin-4-ylamino}-methyl)-4H-pyrido[3,2-b][1,4]oxazin-3-one Dihydrochloride Enantiomer 2]: ≤ 2 µg/mL; for `COc1ccc2ncc(F)c(CCN3CCC(NCc4cc5c(cn4)OCCS5)CC3)c2n1.Cl.Cl` [Example 60, N-(2,3-Dihydro[1,4]oxathiino[2,3-c]pyridin-7-ylmethyl)-1-{2-[3-fluoro-6-(methoxy)-1,5-naphthyridin-4-yl]ethyl}-4-piperidinamine dihydrochloride]: ≤ 2 µg/mL.
Still for that read-out and setting: under `COc1ccc2ncc(Cl)c(CCN3CC[C@@H](NCc4ccc5c(n4)NC(=O)CS5)[C@H](O)C3)c2c1.Cl.Cl.Cl` (single isomer, unassigned; enantiomer 2) [Example 17, 6-({(trans)-1-[2-(3-Chloro-6-methoxyquinolin-4-yl)ethyl]3-hydroxypiperidin-4-ylamino}methyl)-4H-pyrido[3,2-b][1,4]thiazin-3-one Trihydrochloride enantiomer 2] stands ≤ 2 µg/mL.
Same read-out and setting: the same measure for `COc1ccc2ncc(F)c(CCN3CCC(NC(=O)c4nc5c(cc4F)SCC(=O)N5)CC3)c2n1.Cl.Cl` [Example 62, 7-Fluoro-N-(1-{2-[3-fluoro-6-(methoxy)-1,5-naphthyridin-4-yl]ethyl}-4-piperidinyl)-3-oxo-3,4-dihydro-2H-pyrido[3,2-b][1,4]thiazine-6-carboxamide dihydrochloride]: ≤ 2 µg/mL.
Consider `COc1cc(F)c2ncc(F)c(CCN3CC[C@H](NCc4ccc5c(n4)NC(=O)CS5)[C@H](F)C3)c2c1.Cl.Cl` (single isomer, unassigned; enantiomer 1) [Example 149, cis-6-{[(-1-{2-[3,8-difluoro-6-(methoxy)-4-quinolinyl]ethyl}-3-fluoro-4-piperidinyl)amino]methyl}-2H-pyrido[3,2-b][1,4]thiazin-3(4H)-one dihydrochloride, Enantiomer 1], for which the MIC under setting [1] is ≤ 2 µg/mL.

Source of the values: patent US20060041123A1, “Antibacterial agents” (priority 2002, published 2006).
